These results are taken from patent US7867732B2, “Isolated polypeptide binding to a sugar chain, polynucleotide encoding the polypeptide and use of the polypeptide and polynucleotide” (National University of Corporation Hiroshima University, priority 2005, dated 2011).

One experiment concerns BML-17. The experiment is described as follows: Hemagglutination-inhibition test with BML-17 and trypsin-treated rabbit erythrocytes. To be noted: for Minimum inhibitory concentration: inhibition of BML-17 (agglutination titer 4) agglutination of TRBC; for Inhibition of agglutinating activity of BML-17 (in words): TRBC. It is filed as cell-based, Bryopsis maxima. How it is done: Hemagglutinating activity was measured using a micro titer method. Twenty-five μl of serially two-fold dilutions of each purified fraction solution adjusted with saline was placed on a micro titer plate. Each diluted solution was supplemented with 25 μl of a 2% suspension of trypsin-treated rabbit erythrocytes and was gently stirred. The mixture was allowed to stand at room temperature for 1.5 hours and agglutination was observed. Agglutination was evaluated with naked eye. Agglutination of 50% or greater percentage of red blood cells was evaluated as positive. Agglutinating activity was given by agglutination titer, i.e., the protein concentration of maximum diluent showing agglutinating activity.
In this Example, trypsin-treated rabbit red blood cells (TRBC) were used as red blood cells. TRBC was prepared as follows. First, 2 ml of blood was collected from the ear of a rabbit kept in laboratory. The blood sample was washed 3 times with about 50 ml of saline, and was supplemented with 50 ml of saline to obtain a 2% rabbit blood cell suspension. The solution was supplemented with 1/10 volume of 0.5% trypsin in saline, and was allowed to stand at 37° C. for 1.5 hours. The trypsin-treated red blood cells were then washed 3 times with saline, and were supplemented with 45 ml of saline to obtain a 2% suspension of trypsin-treated rabbit erythrocytes (or blood cells) (TRBC).
Hemagglutination-inhibition test was performed according to the following procedure. First, each 25 μl of serially two-fold dilutions of sugar solution in saline was placed on a micro titer plate. The concentration of the original solutions of sugars examined was 100 mM for monosaccharides and oligosaccharides, and 2 mg/ml for glycoproteins. Each solution was mixed with 25 μl of BML-17 solution that had been adjusted to an agglutination titer of 4, and allowed to stand for 1.5 hours at room temperature after gentle stirring. Then, 25 μl of TRBC was added, and the mixture was allowed to stand for 2 hours at room temperature to observe hemagglutination inhibitory capability. The presence or absence of hemagglutination inhibitory capability was determined by naked eye. The test was positive when no hemagglutination occurred in about 100% of the red blood cells.
The hemagglutination inhibition test used D-glucose, D-galactose, D-mannose, N-acetyl-D-glucosamine, N-acetyl-D-galactosamine, D-xylose, L-fucose, fructose, lactose, and raffinose as monosaccharides and oligosaccharides. As glycoproteins, mucin (bovine submaxillary gland) and asialomucin, fetuin (type III, calf serum) and asialofetuin, transferrin (human) and asialotransferrin, α1-acid glycoprotein (human) and alialo-α1-acid glycoprotein, and yeast mannan were used.

The test system of experiment [1] is chicken egg yolk antibody (chicken IgY antibody). The experiment in a line: Search for lectins that bind to chicken egg yolk antibody by SPR (Biacore 2000). In kind it is binding. To be noted: chicken IgY immobilized as ligand. From the text: Assessment was made as to affinity of the different types of lectins and chicken egg yolk antibody (chicken IgY antibody). Briefly, using Biacore 2000 (BIACORE) that employs the principle of surface plasmon resonance method (hereinafter, “SPR method”), chicken egg yolk antibodies (chicken IgY antibodies) were immobilized as ligands on a sensor chip, and measurements were made according to manuals using each type of lectin solution as an analyte. The SPR technique allows for measurement of specific interactions between biomolecules both quickly and quantitatively, without labeling the biomolecules. According to this technique, the ligands are immobilized on a surface of the sensor chip, which is then supplemented with a solution of substance (analyte) that acts on the ligand. Slight changes in mass caused by the binding and dissociation of the molecules are then detected as changes in SPR signals. The mass change is represented by resonance unit (RU). One thousand RU is equivalent to a change in reflection angle of 0.1° caused by resonance, and it means that the analyte has bound to the ligand at 1 ng/mm^2. The surface of the sensor chip is coated with dextran, and the ligands are immobilized primarily via carboxyl groups that have been introduced into the dextran.
Note that, as permitted, the lectins tested as analytes were selected to have different sugar binding specificity. The chicken egg yolk antibody (chicken IgY antibodies) tested as ligands were obtained by purification from egg yolk, using Eggcellent Chicken IgY Purification Kit (Pierce Chem. Co. USA).
(In SPR one partner is held on a chip, and binding of the other changes the refractive index at the surface.)

Setting [2] is: monosaccharides and oligosaccharides.

As for `O=C[C@H](O)[C@@H](O)[C@@H](O)[C@H](O)CO` [D-Galactose], the Minimum inhibitory concentration entry in the experiment on BML-17 (setting [2]) is “— (No inhibition at 100 mM of mono- or oligosaccharides)”.

Regarding `O=C[C@H](O)[C@@H](O)[C@H](O)[C@H](O)CO` [D-Glucose], the Minimum inhibitory concentration result in the experiment with BML-17 (setting [2]) is on record as “— (No inhibition at 100 mM of mono- or oligosaccharides)”.

As for `O=C[C@H](O)[C@@H](O)[C@H](O)CO` [D-Xylose], in the experiment with BML-17 (setting [2]), the Minimum inhibitory concentration entry is recorded as “— (No inhibition at 100 mM of mono- or oligosaccharides)”.

Take `O=C(CO)[C@@H](O)[C@H](O)[C@H](O)CO` [Fructose]: the Minimum inhibitory concentration result in the experiment with BML-17 (setting [2]) was “— (No inhibition at 100 mM of mono- or oligosaccharides)”.

As to `C[C@H](O)[C@@H](O)[C@@H](O)[C@H](O)C=O` [L-Fucose], the Minimum inhibitory concentration result in the experiment on BML-17 (setting [2]) is recorded as “— (No inhibition at 100 mM of mono- or oligosaccharides)”.

In the case of `OC[C@H]1O[C@@H](O[C@H]2[C@H](O)[C@@H](O)C(O)O[C@@H]2CO)[C@H](O)[C@@H](O)[C@H]1O` (stereo partly drawn) [Lactose], in the experiment on BML-17 (setting [2]), the Minimum inhibitory concentration result is reported as “— (No inhibition at 100 mM of mono- or oligosaccharides)”.

For the molecule `CC(=O)N[C@H]1C(O)O[C@H](CO)[C@H](O)[C@@H]1O` (stereo partly drawn) [N-Acetyl-D-galactosamine], the Minimum inhibitory concentration result with BML-17 (setting [2]) was “— (No inhibition at 100 mM of mono- or oligosaccharides)”.

Regarding `CC(=O)N[C@H]1C(O)O[C@H](CO)[C@@H](O)[C@@H]1O` (stereo partly drawn) [N-Acetyl-D-glucosamine], the Minimum inhibitory concentration result with BML-17 (setting [2]) was “— (No inhibition at 100 mM of mono- or oligosaccharides)”.

Turning to `OC[C@H]1O[C@H](OC[C@H]2O[C@H](O[C@]3(CO)O[C@H](CO)[C@@H](O)[C@@H]3O)[C@H](O)[C@@H](O)[C@@H]2O)[C@H](O)[C@@H](O)[C@H]1O` [Raffinose], the Minimum inhibitory concentration entry in the experiment on BML-17 (setting [2]) is recorded as “— (No inhibition at 100 mM of mono- or oligosaccharides)”.

In the case of “Asialotransferrin: asialo form of transferrin (human)”, the “Inhibition of agglutinating activity of BML-17 (in words)” value (“Inhibition” below) in the experiment with BML-17 is reported as “inhibition occurred”. For the same molecule, the Minimum inhibitory concentration in the experiment on BML-17 (glycoproteins) came out at 1000 µg/mL.

Turning to Mucin, in the experiment with BML-17, the “Inhibition” value is on record as “inhibition occurred”. The molecule also yielded a Minimum inhibitory concentration in the experiment on BML-17 (glycoproteins) of 250 µg/mL.

On to “Transferrin: transferrin (human), glycoprotein”, for which the “Inhibition” value with BML-17 was “inhibition occurred”. Also, in the experiment with BML-17 (glycoproteins), the Minimum inhibitory concentration is 2000 µg/mL.

Regarding “αl-Acid glycoprotein: α1-acid glycoprotein (human)”, in the experiment on BML-17 (glycoproteins), the Minimum inhibitory concentration entry is “— (No inhibition at 100 mM of mono- or oligosaccharides, or at 2 mg/ml of glycoproteins)”.

B1: Fetuin: fetuin (type III, calf serum) (protein)
chain: IPLDPVAGYKEPACDDPDTEQAALAAVDYINKHLPRGYKHTLNQIDSVKVWPRRPTGEVYDIEIDTLETTCHVLDPTPLANCSVRQQTQHAVEGDCDIHVLKQDGQFSVLFTKCDSSPDSAEDVRKLCPDCPLLAPLNDSRVVHAVEVALATFNAESNGSYLQLVEISRAQFVPLPVSVSVEFAVAATDCIAKEVVDPTKCNLLAEKQYGFCKGSVIQKALGGEDVRVTCTLFQTQPVIPQPQPDGAEAEAPSAVPDAAGPTPSAAGPPVASVVVGPSVVAVPLPLHRAHYDLRHTFSGVASVESSSGEAFHVGKTPIVGQPSIPGGPVRLCPGRIRYFKI
In the case of B1, in the experiment with BML-17, the “Inhibition” value was “inhibition occurred”. Further, in the experiment on BML-17 (glycoproteins), the Minimum inhibitory concentration was found to be 1000 µg/mL.

B2: Asialofetuin: asialo form of fetuin (protein)
chain: B1 chain
With B2, in the experiment on BML-17, the “Inhibition” value was “inhibition occurred”. In the experiment with BML-17 (glycoproteins), this molecule registered a Minimum inhibitory concentration of 500 µg/mL.

B3: UEA-I: Ulex europaeus-derived lectin (protein)
chain: SDDLSFKFKNFSQNGKDLSFQGDASVIETGVLQLNKVGNNLPDETGGIARYIAPIHIWNCNTGEVASFITSFSFFMETSANPKAATDGLTFFLAPPDSPLRRAGGYFGLFEDTKDNDSSYQTVAVEFDTIGSPVNFDDPGFPHIGIDVNRVKSINAERWNKRYGLNNVANVEIIYEASSKTLTASLTYPSDQTSISVTSIVDLKEILPEWVSVGFSGGTYIGRQATHEVLNWYFTSNLINTNS
As to B3, the “Binding to chicken egg yolk antibody (in words)” value in experiment [1] is “binding to chicken egg yolk antibody (chicken IgY antibodies) occurs”.
